Measured values reported in patent publication US20220202964A1, “HEPARANASE COMPOUNDS AND METHODS OF USE” (University of Florida Research Foundation, Incorporated, priority 2019, published 2022).
Read-outs that look alike come from different tables or passages of the source.

Experiments:
[1] = stated for comparison; cited from earlier work
[2] = pH profile of fluorescence / pKa; format: physicochemical; details: hydrolytic product of HADP, fluorescence vs pH
Method: So, pH profiles of the fluorophore DiFMU and Compound 1 (HADP) were evaluated. […] In contrast, the pKa of 4-methylumbelliferone is ca. 7.8. […] Moreover, the introduction of the fluorine substituents increased the quantum yield and improved the photostability, enabling highly sensitive detection for heparanase.

[3] = biological target: T1, heparanase (Homo sapiens, UniProt Q9Y251); details: substrate for heparanase, comparison value; cited from earlier work
T1 sequence (Q9Y251 36-543): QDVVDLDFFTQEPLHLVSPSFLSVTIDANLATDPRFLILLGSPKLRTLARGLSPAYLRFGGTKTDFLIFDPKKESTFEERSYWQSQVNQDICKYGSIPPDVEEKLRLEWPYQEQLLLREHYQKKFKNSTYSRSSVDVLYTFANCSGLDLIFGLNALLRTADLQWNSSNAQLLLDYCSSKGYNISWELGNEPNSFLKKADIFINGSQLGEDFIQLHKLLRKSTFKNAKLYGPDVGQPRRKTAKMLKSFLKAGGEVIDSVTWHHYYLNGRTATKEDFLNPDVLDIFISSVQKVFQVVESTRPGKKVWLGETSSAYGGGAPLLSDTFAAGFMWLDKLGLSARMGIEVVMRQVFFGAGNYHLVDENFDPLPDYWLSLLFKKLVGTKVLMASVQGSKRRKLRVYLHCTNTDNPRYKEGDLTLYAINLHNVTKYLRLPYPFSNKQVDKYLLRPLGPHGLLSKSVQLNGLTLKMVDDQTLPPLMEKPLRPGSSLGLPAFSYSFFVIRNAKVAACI

[4] = biological target: T1, heparanase; test: Activation of compounds by recombinant heparanase (fluorescence response); format: biochemical; details: 5 μM compound, 1 μg heparanase, 40 mM NaOAc buffer (pH 5.0), 37° C., λex/em=365 nm/455 nm
Method: To a solution of 20 μL, of 50 μM compound 1 (HADP) and 160 μL 40 mM NaOAc (pH=5.0) was added 20 μL, 0.1 μg/μL heparanase to obtain 5 μM 1 (HADP) with 2 μg heparanase solution. After incubation at 37° C. for 2 h, the reaction solution was transferred to quartz cuvettes to measure absorbance or fluorescence. Absorbance spectrum scan range from 250 nm to 500 nm (1 nm increment). fluorescence spectrum setting: λex=365 nm, Slit Width 2.5 nm. Emission was record from 400 nm to 600 nm, Slit Width 5 nm. Absorption spectra were recorded on Shimadzu UV-2700 UV-VIS Spectrophotometer. Fluorescence spectra were recorded on Fluorolog TAU-3 Spectrofluorometer with a xenon lamp (Jobin Yvon-Spex, Instruments S. A., Inc.)
Fluorescence micro cells was charged with 20 μL, of 50 μM compound 1 (HADP) and 160 μL 40 mM NaOAc (pH=5.0). Then 20 μL, 0.05 μg/μL heparanase was added to the above solution. Fluorescence spectra were recorded from 0 min to 3 h. fluorescence spectrum setting: λex=365 nm, Slit Width 2.5 nm. Emission was record from 400 nm to 600 nm, Slit Width 5 nm.
To a solution of 20 μL, of 50 μM each compound and 160 μL, 40 mM NaOAc (pH=5.0) was added 20 μL, 0.05 μg/μL heparanase to obtain 5 μM each compound with 1 μg heparanase solution in 96-well microplate. Each compound was performed in triplicate. Then the microplate was sealed with sealing film and incubated at 37° C. Fluorescence intensity was recorded on Spectramax M5 Multimode plate reader (Molecular Devices, USA) at each timepoint. λex/em=365 nm/455 nm.
5 μM compound 1 (HADP) was incubated with various biological species at the indicated amount/concentration in 96-well microplate. Cysteine (5 mM), Glutathione (5 mM), H2O2 (100 μM), Esterase, Chondroitinase ABC, Hyaluronidase, Lysozyme, β-Glucuronidase, β-Glucosidase (5 μg each) and heparanase (2 μg). For Chondroitinase ABC and Hyaluronidase, 50 μg was also tested. Each sample was performed in triplicates. Then the microplate was sealed with sealing film and incubated at 37° C. for 4 hours. Fluorescence intensity was recorded on Spectramax M5 Multimode plate reader (Molecular Devices, USA). λex/em=365 nm/455 nm.

[5] = biological target: T1, heparanase; test: HPLC analysis of compounds 1-4 with heparanase; format: biochemical; details: 5 μM, heparanase 1 μg, 4 hours, 37° C., NaOAc pH 5.0
Method: Heparanase (1 μg, 20 μL) was added to the compounds 1-4 solution (180 μL, 5 μM) in 40 mM NaOAc buffer (pH 5.0) and the mixture was incubated for 4 hours at 37° C. The resulting mixtures were injected into HPLC for analysis. HPLC analysis was performed under the following conditions—mobile phase A: water with 0.1% TFA; B: acetonitrile with 0.1% TFA; 0-20 min: gradient elution, 25-95% B. The trace was monitored by DAD detector at 315 nm.

Compound | fluorescence response towards heparanase [4] | cleavage by heparanase (HPLC trace) [5] | also measured
Cc1cc(=O)oc2cc(O)ccc12 [4-methylumbelliferone] |  |  | pKa [1]: ca. 7.8
Cc1cc(=O)oc2c(F)c(O)c(F)cc12 [DiFMU, 6,8-difluoro-7-hydroxy-4-methylcoumarin, reference compound] |  |  | pKa [2]: ~4.7
CO[C@H]1O[C@H](COS(=O)(=O)O)[C@@H](O[C@@H]2O[C@@H](C(=O)O)[C@@H](O[C@H]3O[C@H](COS(=O)(=O)O)[C@@H](O[C@@H]4O[C@H](C(=O)O)[C@@H](O[C@H]5O[C@H](COS(=O)(=O)O)[C@@H](O)[C@H](O)[C@H]5NS(=O)(=O)O)[C@H](O)[C@H]4O)[C@H](OS(=O)(=O)O)[C@H]3NS(=O)(=O)O)[C@H](O)[C@H]2OS(=O)(=O)O)[C@H](O)[C@H]1NS(=O)(=O)O [fondaparinux] |  |  | Km [3]: 46 µM
(2S,3S,4R,5R,6S)-3-(((2R,3R,4R,5S,6R)-4,5-dihydroxy-6-((sulfooxy)methyl)-3-(((E)-trioxidaneyl-14-sulfaneylidene)amino)tetrahydro-2H-pyran-2-yfloxy)-4,5-dihydroxy-6-((4-methyl-2-oxo-2H-chromen-7-yl)oxy)tetrahydro-2H-pyran-2-carboxylic acid [Compound 4] | could not be activated by heparanase | could not be cleaved by heparanase | 
(2S,3S,4R,5R,6S)-6-((8-(difluoromethyl)-4-methyl-2-oxo-2H-chromen-7-yl)oxy)-3-(((2R,3R,4R,5S,6R)-3-((hydrosulfonyloxy)amino)-4,5-dihydroxy-6-(hydroxymethyl)tetrahydro-2H-pyran-2-yl)oxy)-4,5-dihydroxytetrahydro-2H-pyran-2-carboxylic acid [Compound 3] | very slight fluorescence enhancement | could not be cleaved by heparanase | 
